The numbers were not newly measured in US20220211661A1, “GREEN TEA CATECHINS EUTECTIC SYSTEM” (ASSISTANCE PUBLIQUE - HOPITAUX DE PARIS, priority 2019, published 2022), which cites them from elsewhere.

For the data set the following is noted: after 1-h ultra violet irradiation.

(-)-epigallocatechin-3-gallate [EGCG]: the EGCG decomposed was 70%.
